In one test the target is T1, human CYP11B1 (Homo sapiens, UniProt P15538).
T1 construct: expressed in transfected cells
T1 sequence (P15538 25-503): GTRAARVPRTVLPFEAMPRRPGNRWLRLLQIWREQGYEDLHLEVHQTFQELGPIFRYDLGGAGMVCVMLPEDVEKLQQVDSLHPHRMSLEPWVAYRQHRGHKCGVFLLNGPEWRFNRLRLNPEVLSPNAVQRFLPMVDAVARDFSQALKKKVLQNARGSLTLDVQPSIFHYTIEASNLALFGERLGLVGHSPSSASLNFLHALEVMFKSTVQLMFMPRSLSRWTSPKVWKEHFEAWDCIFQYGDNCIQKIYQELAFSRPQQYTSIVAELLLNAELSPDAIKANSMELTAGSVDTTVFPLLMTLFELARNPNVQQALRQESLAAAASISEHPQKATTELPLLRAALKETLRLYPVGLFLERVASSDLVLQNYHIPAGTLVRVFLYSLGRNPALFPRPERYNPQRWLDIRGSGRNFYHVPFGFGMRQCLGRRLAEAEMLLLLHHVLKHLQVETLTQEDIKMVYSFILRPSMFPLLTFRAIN
Briefly: G-402 cellular enzyme assay, human CYP11B1 (cortisol release, HTRF). The class given is cell-based. To be noted: G-402 cells expressing human CYP11B1; 1 μM Deoxycortisol; 16 h. From the text:
(§1) Herein we identified the use of the G-402 cell line as a host cell to ectopically express (transiently or stably) enzymes of the CYP11 family. Specifically we developed stable G-402 cells expressing ectopically human CYP11B1, human CYP11B2, human CYP11A1, cynomolgus CYP11B1 or cynomolgus CYP11B2 enzyme activity. Importantly, the identified cell line G-402 expresses co-factors (adrenodoxin and adrenodoxin reductase) important for the activity of the CYP11 family, and no relevant enzyme activity of the CYP11 family (in comparison to H295R cells) was detected in these cells. Therefore the G-402 cell line is uniquely suited as a host cell for the ectopic expression of enzymes from the CYP11 family.
(§2) G-402 cells can be obtained from ATCC(CRL-1440) and were originally derived from a renal leiomyoblastoma.
(§3) The expression plasmids contains the ORF for either human/cyno CYP11B1 or CYP11B2 under the control of a suitable promoter (CMV-promoter) and a suitable resistance marker (neomycin). Using standard techniques the expression plasmid is transfected into G-402 cells and these cells are then selected for expressing the given resistance markers. Individual cell-clones are then selected and assessed for displaying the desired enzymatic activity using 11-Deoxycorticosterone (Cyp11B2) or 11-Deoxycortisol (Cyp11B1) as a substrate.
(§4) G-402 cells expressing CYP11 constructs were established as described above and maintained in McCoy's 5a Medium Modified, ATCC Catalog No. 30-2007 containing 10% FCS and 400 μg/ml G418 (Geneticin) at 37° C. under an atmosphere of 5% CO2/95% air. Cellular enzyme assays were performed in DMEM/F12 medium containing 2.5% charcoal treated FCS and appropriate concentration of substrate (0.3-10 uM 11-Deoxycorticosterone, 11-Deoxycortisol or Corticosterone). For assaying enzymatic activity, cells were plated onto 96 well plates and incubated for 16 h. An aliquot of the supernatant is then transferred and analyzed for the concentration of the expected product (Aldosterone for CYP11B2; Cortisol for CYP11B1). The concentrations of these steroids can be determined using HTRF assays from CisBio analyzing either Aldosterone or Cortisol.
(§5) Inhibition of the release of produced steroids can be used as a measure of the respective enzyme inhibition by test compounds added during the cellular enzyme assay. The dose dependent inhibition of enzymatic activity by a compound is calculated by means of plotting added inhibitor concentrations (x-axes) vs. measured steroid/product level (y-axes). The inhibition is then calculated by fitting the following 4-parameter sigmoidal function (Morgan-Mercer-Flodin (MMF) model) to the raw data points using the least squares method:
(§6) [formula] wherein A is the maximum y value, B is the EC50 factor determined using XLFit, C is the minimum y value and D is the slope value.
(§7) EC50 values for compounds claimed herein were tested with the G402-based assay system described. Cyp11B2 enzyme activity was tested in presence of 1 μM Deoxycorticosterone and variable amounts of inhibitors; Cyp11B1 enzyme activity was tested in presence of 1 μM Deoxycortisol and variable amounts of inhibitors.
On the technique in general: Time-resolved FRET reads energy transfer from a long-lived donor to a nearby acceptor.

Another test concerns the target T2, human CYP11B2 (Homo sapiens, UniProt P19099).
T2 construct: expressed in transfected cells
T2 sequence (P19099 25-503): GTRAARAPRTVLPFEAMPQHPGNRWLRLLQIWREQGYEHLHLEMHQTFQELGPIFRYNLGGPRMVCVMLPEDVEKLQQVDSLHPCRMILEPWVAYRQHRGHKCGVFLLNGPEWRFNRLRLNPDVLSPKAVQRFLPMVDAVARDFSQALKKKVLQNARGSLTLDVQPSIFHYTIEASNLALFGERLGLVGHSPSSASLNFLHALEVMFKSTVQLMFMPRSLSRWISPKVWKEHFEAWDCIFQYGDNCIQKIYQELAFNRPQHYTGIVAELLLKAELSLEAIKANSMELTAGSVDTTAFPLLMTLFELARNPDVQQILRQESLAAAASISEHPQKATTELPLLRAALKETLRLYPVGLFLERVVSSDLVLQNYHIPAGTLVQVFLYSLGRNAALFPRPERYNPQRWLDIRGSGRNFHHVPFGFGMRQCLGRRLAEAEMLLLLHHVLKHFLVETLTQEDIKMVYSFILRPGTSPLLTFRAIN
Briefly: G-402 cellular enzyme assay, human CYP11B2 (aldosterone release, HTRF). The class given is cell-based. To be noted: G-402 cells expressing human CYP11B2; 1 μM Deoxycorticosterone; 16 h.
Excerpt: as §1, §2, §3, §4, §5, §6, §7

Turning to `CC(=O)N(C)c1ccc(C(=O)c2cncn2C(C)C)cc1` [Example 59, N-[4-(3-Isopropyl-3H-imidazole-4-carbonyl)-phenyl]-N-methyl-acetamide], the concentration giving a half-maximal response (EC50) – broadly, the concentration giving half of the maximal effect – on human CYP11B1 was determined as 5040 nM; on human CYP11B2 it was 51.3 nM.

`CCn1cncc1C(=O)c1ccc(SC)c(OC)c1` [Example 60, (3-Ethyl-3H-imidazol-4-yl)-(3-methoxy-4-methylsulfanyl-phenyl)-methanone]: the EC50 at human CYP11B1 was 84.3 nM; on human CYP11B2, 4 nM.

With `COc1cc(C(=O)c2cncn2C(C)C)ccc1SC` [Example 61, (3-Isopropyl-3H-imidazol-4-yl)-(3-methoxy-4-methylsulfanyl-phenyl)-methanone], the figures for the EC50 on human CYP11B1 and at human CYP11B2 were 8.7 nM and 0.2 nM, respectively.

For `COc1cc(C(=O)c2cncn2C2CC2)ccc1SC` [Example 62, (3-Cyclopropyl-3H-imidazol-4-yl)-(3-methoxy-4-methylsulfanyl-phenyl)-methanone], the figures for the concentration giving a half-maximal response (EC50) on human CYP11B1 and at human CYP11B2 were 46.1 nM and 2.8 nM, respectively.

Consider `CCn1cncc1C(=O)c1ccc(F)c(C#N)c1` [Example 63, 5-(3-Ethyl-3H-imidazole-4-carbonyl)-2-fluoro-benzonitrile], for which the EC50 worked out at 3440 nM at human CYP11B1 and 335 nM at human CYP11B2.

Regarding `CC(C)n1cncc1C(=O)c1ccc(F)c(C#N)c1` [Example 64, 2-Fluoro-5-(3-isopropyl-3H-imidazole-4-carbonyl)-benzonitrile], the concentration giving a half-maximal response (EC50) on human CYP11B1 came to 448 nM; on human CYP11B2 it was 323 nM.

Regarding `CCC(C)n1cncc1C(=O)c1ccc(F)c(C#N)c1` (stereo not shown) [Example 65, 5-(3-sec-Butyl-3H-imidazole-4-carbonyl)-2-fluoro-benzonitrile], the half-maximal effective concentration (EC50) is 88.2 nM at human CYP11B1 and 21.5 nM on human CYP11B2.

On to `N#Cc1cc(C(=O)c2cncn2C2CC2)ccc1F` [Example 66, 5-(3-Cyclopropyl-3H-imidazole-4-carbonyl)-2-fluoro-benzonitrile], for which the concentration for a half-maximal effect (EC50) at human CYP11B1 came out at 2210 nM; at human CYP11B2, 447 nM.

For the molecule `CCn1cncc1C(=O)c1ccc(N(C)C(C)=O)cc1` [Example 67, N-[4-(3-Ethyl-3H-imidazole-4-carbonyl)-phenyl]-N-methyl-acetamide], the 50% effective concentration (EC50) on human CYP11B1 is 9910 nM; at human CYP11B2 it was 291 nM.

In the case of `Cn1cncc1C(=O)c1ccc(Br)cc1` [Example 68, (4-Bromo-phenyl)-(3-methyl-3H-imidazol-4-yl)-methanone], the EC50 on human CYP11B1 is 488 nM; at human CYP11B2 it was 18.6 nM.

As for `CCSc1ccc(C(=O)c2cncn2CC)cc1` [Example 69, (3-Ethyl-3H-imidazol-4-yl)-(4-ethylsulfanyl-phenyl)-methanone], the EC50 was 329 nM at human CYP11B1 and 84.4 nM at human CYP11B2.

For the molecule `CCSc1ccc(C(=O)c2cncn2C2CC2)cc1` [Example 70, (3-Cyclopropyl-3H-imidazol-4-yl)-(4-ethylsulfanyl-phenyl)-methanone], the EC50 on human CYP11B1 is 364 nM; at human CYP11B2, 22.8 nM.

Take `CCSc1ccc(C(=O)c2cncn2C(C)C)cc1` [Example 71, (4-Ethylsulfanyl-phenyl)-(3-isopropyl-3H-imidazol-4-yl)-methanone]: the EC50 on human CYP11B1 was 253 nM; at human CYP11B2, 5.3 nM.

`CC(C)n1cncc1C(=O)c1ccc(Br)cc1` [Example 72, (4-Bromo-phenyl)-(3-isopropyl-3H-imidazol-4-yl)-methanone]: the half-maximal effective concentration (EC50) at human CYP11B1 is 10.1 nM; on human CYP11B2, 5.2 nM.

`CCn1cncc1C(=O)c1ccc(SC(F)(F)F)cc1` [Example 74, (3-Ethyl-3H-imidazol-4-yl)-(4-trifluoromethylsulfanyl-phenyl)-methanone]: the concentration giving a half-maximal response (EC50) on human CYP11B1 turned out to be 1320 nM; at human CYP11B2 it was 235 nM.

`CC(C)n1cncc1C(=O)c1ccc(SC(F)(F)F)cc1` [Example 75, (3-Isopropyl-3H-imidazol-4-yl)-(4-trifluoromethylsulfanyl-phenyl)-methanone]: the EC50 at human CYP11B1 is 760 nM; at human CYP11B2, 89.9 nM.

Take `CCC(CC)n1cncc1C(=O)c1ccc(SC(F)(F)F)cc1` [Example 76, [3-(1-Ethyl-propyl)-3H-imidazol-4-yl]-(4-trifluoromethylsulfanyl-phenyl)-methanone]: the EC50 on human CYP11B1 stood at 264 nM; on human CYP11B2 it was 42.7 nM.

Regarding `N#Cc1ccc(-n2cncc2C(=O)c2ccc(Cl)cc2)cc1Cl` [Example 77, 2-Chloro-4-[5-(4-chloro-benzoyl)-imidazol-1-yl]-benzonitrile], the EC50 at human CYP11B1 worked out at 9.8 nM; on human CYP11B2 it was 1.9 nM.

Take `N#Cc1ccc(-n2cncc2C(=O)c2ccc(Cl)c(Cl)c2)cc1Cl` [Example 78, 2-Chloro-4-[5-(3,4-dichloro-benzoyl)-imidazol-1-yl]-benzonitrile]: the concentration giving a half-maximal response (EC50) at human CYP11B1 came out at 145 nM; at human CYP11B2, 3.7 nM.

In the case of `COc1cc(C(=O)c2cncn2C)ccc1SC(F)(F)F` [Example 79, (3-Methoxy-4-trifluoromethylsulfanyl-phenyl)-(3-methyl-3H-imidazol-4-yl)-methanone], the EC50 was 1580 nM at human CYP11B1 and 14.8 nM on human CYP11B2.

On to `CCn1cncc1C(=O)c1ccc(SC(F)(F)F)c(OC)c1` [Example 80, (3-Ethyl-3H-imidazol-4-yl)-(3-methoxy-4-trifluoromethylsulfanyl-phenyl)-methanone], for which the values for the half-maximal effective concentration (EC50) on human CYP11B1 and on human CYP11B2 were 634 nM and 12.9 nM, respectively.

On to `COc1cc(C(=O)c2cncn2C(C)C)ccc1SC(F)(F)F` [Example 81, (3-Isopropyl-3H-imidazol-4-yl)-(3-methoxy-4-trifluoromethylsulfanyl-phenyl)-methanone], for which the figures for the EC50 at human CYP11B1 and at human CYP11B2 were 199 nM and 15.9 nM, respectively.

Turning to `CCC(CC)n1cncc1C(=O)c1ccc(C#N)cc1` [Example 82, 4-[3-(1-Ethyl-propyl)-3H-imidazole-4-carbonyl]-benzonitrile], the half-maximal effective concentration (EC50) on human CYP11B1 turned out to be 3.3 nM; at human CYP11B2 it was 0.2 nM.

As to `CCC(CC)n1cncc1C(=O)c1cccc(C#N)c1` [Example 83, 3-[3-(1-Ethyl-propyl)-3H-imidazole-4-carbonyl]-benzonitrile], the figures for the EC50 on human CYP11B1 and on human CYP11B2 were 57 nM and 5.7 nM, respectively.

Consider `CNc1ccc(C(=O)c2cncn2C)cc1` [Example 86, (4-Methylamino-phenyl)-(3-methyl-3H-imidazol-4-yl)-methanone], for which the figures for the EC50 at human CYP11B1 and on human CYP11B2 were 3750 nM and 1620 nM, respectively.

Turning to `CN(C=O)c1ccc(C(=O)c2cncn2C)cc1` [Example 87, N-Methyl-N-[4-(3-methyl-3H-imidazole-4-carbonyl)-phenyl]-formamide], the half-maximal effective concentration (EC50) on human CYP11B1 came to 30400 nM; at human CYP11B2, 186 nM.
